In patent US20260146060A1, “PHOSPHORAMIDITE CONJUGATES AND METHODS OF FORMING SYNTHETIC OLIGONUCLEOTIDES THEREFROM” (CARNEGIE MELLON UNIVERSITY, priority 2022, published 2026):

What was measured:
[1] = Stability assay in 10% FBS (gel electrophoresis of remaining DNA); conditions: 37° C., 5.3 μM; for time until entirely degraded: 10% FBS and 1X PBS
[2] = system: Beta*Tmm; assay: Hybridization with complementary DNA carrying a mismatched T, native gel electrophoresis; format: binding; conditions: stoichiometric complementary DNA, temperature annealing
Source text: (§1) Hybridization-driven self-assembly has made DNA a versatile building material for nanoscience. The sequence control over SBiB incorporation in DNA can expand the availability of DNA-initiators as new precursors for the fabrication of hybrid nanomaterials. Towards such an end, the hybridization of a mixed oligonucleotide sequence containing an internal SBiB initiator residue in the middle (Beta-SBiB1) was studied with a stoichiometric amount of complementary DNA followed by temperature annealing. For hybridization experiments, two different complementary strands to Beta-SBiB1 were used: one which was fully complementary to the Beta sequence (Beta*) and another that was fully complementary to the Beta sequence with the additional inclusion of a mismatched T residue opposite the SBiB location within the Beta sequence (Beta*Tmm). Beta*Tmm was used to evaluate if the single T residue opposite the 3 carbons insert of SBiB could reduce the strain during duplex formation.
(§2) Double-stranded DNA preparation and melting curve analysis. Desired single-stranded DNA (Beta or Beta-SBiB) was mixed with a stoichiometric amount of complementary DNA (Beta* or Beta*Tmm) at a final concentration of 20 μM in 1×PBS. The DNA mixture was placed in a heat block at 95° C. for 5 min. Following the heating process, the heat block was turned off and slowly cooled to room temperature (approx. 0.5° C./min). […]

[3] = system: Beta*; assay: Hybridization with complementary DNA, native gel electrophoresis; format: binding; conditions: stoichiometric complementary DNA, temperature annealing, for Beta-SBiB2 the complementary strand is not stated
Source text: as §1, §2

For “unmodified Beta DNA: purchased 21-mer DNA, ACGTCGAGCAGTCAGAGCTGT (DNA ACGTCGAGCAGTCAGAGCTGT; unmodified DNA)”, the “time until entirely degraded” value ([1]; in the absence of free pOEOMA) was at most 12 h and the “time until entirely degraded” value ([1]; in the presence of free pOEOMA in the supernatant) was at most 12 h.
For “Beta-SBiB1: ACG TCG AGC AGT /i/ CAG AGC TGT, i = SBiB residue”, the “hybridization (duplex formation)” value [2] was “successfully hybridize” and the “hybridization (duplex formation)” value [3] was “successfully hybridize”.
Substance “Beta-SBiB3: /i/ ACG TCG AGC AGT /i/ CAG AGC TG /i/ T” has a degradation ([1]; 10% FBS, after 24 hours) of 46%.
